Results from patent US8552002B2 (Novartis AG, priority 2004, dated 2013).

Experiments:
Assay type in all cases: biochemical
KDR = molecular target: T1, KDR (Homo sapiens, UniProt P35968); test: Inhibitory activity against KDR (VEGF-R2), in vitro data of Examples 170 and 207; details: 10 μM; Examples 1 to 169; read-out: KDR inhibition at 10 μM
T1 construct: expressed in transfected cells; host or cells: CHO cells
Method: (Controls comprise medium without test compounds). After two hours of incubation at 37° C., recombinant VEGF is added; the final VEGF concentration is 20 ng/ml. After a further five minutes incubation at 37° C., the cells are washed twice with ice-cold PBS (phosphate-buffered saline) and immediately lysed in 100 μl lysis buffer per well. The lysates are then centrifuged to remove the cell nuclei, and the protein concentrations of the supernatants are determined using a commercial protein assay (BIORAD). The lysates can then either be immediately used or, if necessary, stored at −20° C. […] The plates are then washed and the remaining free protein-binding sites are saturated with 3% TopBlock® (Juro, Cat. # TB232010) in phosphate buffered saline with Tween 20® (polyoxyethylen(20)sorbitane monolaurate, ICI/Uniquema) (PBST). The cell lysates (20 μg protein per well) are then incubated in these plates overnight at 4° C. together with an antiphosphotyrosine antibody coupled with alkaline phosphatase (PY20:AP from Zymed). […] The luminescence is measured in a Packard Top Count Microplate Scintillation Counter.

FGFR3 (K650E) = molecular target: T2, FGFR3 (K650E) (Homo sapiens, UniProt P22607, K650E); test: Recombinant GST-FGFR-3-K650E tyrosine kinase assay (33P into poly(Glu,Tyr)); details: 10 μM; Examples 1 to 169; read-out: FGFR3 (K650E) inhibition at 10 μM
T2 construct: amino acids 411-806 of the cytoplasmic domain of human FGFR-3, N-terminally fused to GST; made in house; host or cells: Sf9 insect cells (baculovirus)

Tek = molecular target: T3, Tek (Homo sapiens, UniProt Q02763); test: Recombinant GST-Tek (Tie-2) tyrosine kinase assay (33P into poly(Glu,Tyr)); details: Examples 1 to 169
T3 construct: amino acids 773-1124 of the cytoplasmic kinase domain of human Tek, N-terminally fused to GST; made in house; host or cells: Sf9 insect cells (baculovirus)
Source text: (Tie-2/Tek): The baculovirus donor vector pFbacG01 was used to generate a recombinant baculovirus that expressed the amino acid region amino acids 773-1124 of the cytoplasmic kinase domain of human Tek, N-terminally fused to GST (Provided by Dr. Marmé, Institute of Molecular Medicine, Freiburg, Germany based on a Research Collaboration). Tek was recloned into the pFbacG01 transfer vector by EcoRI excision and ligation into EcoRI digested pFbacG01 (FBG-Tie2/Tek).
Production of virus: Transfer vectors containing the kinase domains were transfected into the DH10Bac cell line (GIBCO) and plated on selective agar plates. Colonies without insertion of the fusion sequence into the viral genome (carried by the bacteria) are blue. Single white colonies were picked and viral DNA (bacmid) isolated from the bacteria by standard plasmid purification procedures. Sf9 cells or Sf21 cells were then transfected in 25 cm^2 flasks with the viral DNA using Cellfectin reagent.
Determination of small scale protein expression in Sf9 cells: Virus containing media was collected from the transfected cell culture and used for infection to increase its titer. Virus containing media obtained after two rounds of infection was used for large-scale protein expression. For large-scale protein expression 100 cm^2 round tissue culture plates were seeded with 5×10^7 cells/plate and infected with 1 mL of virus-containing media (approx. 5 MOIs). After 3 days the cells were scraped off the plate and centrifuged at 500 rpm for 5 min. Cell pellets from 10-20, 100 cm^2 plates, were resuspended in 50 mL of ice-cold lysis buffer (25 mMTris-HCl, pH7.5, 2 mMEDTA, 1% NP-40, 1 mM DTT, 1 mMP MSF). The cells were stirred on ice for 15 min and then centrifuged at 5000 rpms for 20 min.
Purification of GST-tagged proteins: The centrifuged cell lysate was loaded onto a 2 mL glutathione-sepharose column and washed three times with 10 mL of 25 mM Tris-HCl, pH 7.5, 2 mM EDTA, 1 mM DTT, 200 mM NaCl. The GST-tagged proteins were then eluted by 10 applications (1 mL each) of 25 mM Tris-HCl, pH 7.5, 10 mM reduced-glutathione, 100 mM NaCl, 1 mM DTT, 10% Glycerol and stored at −70° C.
Measure of enzyme activity: Tyrosine protein kinase assays with either purified GST-Ret, GST-Tek or GST-FGFR-3-K650E were carried out in a final volume of 30 μL with final concentrations of the following components: Ret included 15 ng of GST-Ret, 20 mM Tris-HCl, pH 7.5, 1 mM MnCl2, 10 mM MgCl2, 1 mM DTT, 3 μg/mL poly(Glu,Tyr) 4:1, 1% DMSO and 2.0 μM ATP (γ-[^33P]-ATP 0.1 μCi). Tek included 150 ng of GST-Tek, 20 mM Tris-HCl, pH 7.5, 3 mM MnCl2, 3 mM MgCl2, 1 mM DTT, 0.01 mM Na3VO4, 250 μg/mL PEG 20'000, 10 μg/mL poly(Glu,Tyr) 4:1, 1% DMSO and 4.0 μM ATP (γ-[^33P]-ATP 0.1 μCi). FGFR-3-K650E included 10 ng of GST-FGFR-3-K650E, 20 mM Tris-HCl, pH 7.5, 3 mM MnCl2, 3 mM MgCl2, 1 mM DTT, […], 10 μg/mL poly(Glu,Tyr) 4:1, 1% DMSO and 4.0 μM ATP (γ-[^33P]-ATP 0.1 μCi).The activity was assayed in the presence or absence of inhibitors, by measuring the incorporation of ^33P from [γ^33P] ATP into poly(Glu,Tyr) 4:1. The assay was carried out in 96-well plates at ambient temperature for 30 min under conditions described below and terminated by the addition of 50 μL of 125 mM EDTA. Subsequently, 60 μL of the reaction mixture were transferred onto Immobilon-PVDF membrane (Millipore) previously soaked for 5 min with methanol, rinsed with water, then soaked for 5 min with 0.5% H3PO4 and mounted on vacuum manifold with disconnected vacuum source. After spotting all samples, vacuum was connected and each well rinsed with 200 μL 0.5% H3PO4. Membranes were removed and washed 4× on a shaker with 1.0% H3PO4, once with ethanol. Membranes were counted after drying at ambient temperature, mounting in Packard TopCount 96-well frame, and addition of 10 μL/well of Microscint™ (Packard). […]

T2 sequence (P22607 411-806 K650E): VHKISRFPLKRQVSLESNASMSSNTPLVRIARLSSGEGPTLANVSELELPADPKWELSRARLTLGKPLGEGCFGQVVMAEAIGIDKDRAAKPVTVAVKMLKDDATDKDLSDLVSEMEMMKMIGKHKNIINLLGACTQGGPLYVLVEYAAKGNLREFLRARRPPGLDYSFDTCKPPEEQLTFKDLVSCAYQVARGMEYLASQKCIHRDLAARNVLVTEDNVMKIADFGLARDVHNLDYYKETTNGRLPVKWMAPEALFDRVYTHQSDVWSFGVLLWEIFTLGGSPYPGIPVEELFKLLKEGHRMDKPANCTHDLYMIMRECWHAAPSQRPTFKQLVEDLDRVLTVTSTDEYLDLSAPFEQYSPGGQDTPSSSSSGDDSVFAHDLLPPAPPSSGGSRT
T3 sequence (Q02763 773-1124): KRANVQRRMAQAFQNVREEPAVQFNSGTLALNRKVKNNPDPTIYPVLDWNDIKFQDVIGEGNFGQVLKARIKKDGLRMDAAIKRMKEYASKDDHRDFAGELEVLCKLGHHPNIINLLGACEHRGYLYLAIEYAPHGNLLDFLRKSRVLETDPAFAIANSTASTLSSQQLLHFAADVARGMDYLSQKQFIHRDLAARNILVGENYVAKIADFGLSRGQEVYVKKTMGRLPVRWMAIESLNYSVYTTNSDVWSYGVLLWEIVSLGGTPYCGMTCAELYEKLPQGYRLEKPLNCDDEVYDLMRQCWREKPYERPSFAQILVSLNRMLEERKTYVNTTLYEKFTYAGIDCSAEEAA
T1 sequence (P35968 20-1356): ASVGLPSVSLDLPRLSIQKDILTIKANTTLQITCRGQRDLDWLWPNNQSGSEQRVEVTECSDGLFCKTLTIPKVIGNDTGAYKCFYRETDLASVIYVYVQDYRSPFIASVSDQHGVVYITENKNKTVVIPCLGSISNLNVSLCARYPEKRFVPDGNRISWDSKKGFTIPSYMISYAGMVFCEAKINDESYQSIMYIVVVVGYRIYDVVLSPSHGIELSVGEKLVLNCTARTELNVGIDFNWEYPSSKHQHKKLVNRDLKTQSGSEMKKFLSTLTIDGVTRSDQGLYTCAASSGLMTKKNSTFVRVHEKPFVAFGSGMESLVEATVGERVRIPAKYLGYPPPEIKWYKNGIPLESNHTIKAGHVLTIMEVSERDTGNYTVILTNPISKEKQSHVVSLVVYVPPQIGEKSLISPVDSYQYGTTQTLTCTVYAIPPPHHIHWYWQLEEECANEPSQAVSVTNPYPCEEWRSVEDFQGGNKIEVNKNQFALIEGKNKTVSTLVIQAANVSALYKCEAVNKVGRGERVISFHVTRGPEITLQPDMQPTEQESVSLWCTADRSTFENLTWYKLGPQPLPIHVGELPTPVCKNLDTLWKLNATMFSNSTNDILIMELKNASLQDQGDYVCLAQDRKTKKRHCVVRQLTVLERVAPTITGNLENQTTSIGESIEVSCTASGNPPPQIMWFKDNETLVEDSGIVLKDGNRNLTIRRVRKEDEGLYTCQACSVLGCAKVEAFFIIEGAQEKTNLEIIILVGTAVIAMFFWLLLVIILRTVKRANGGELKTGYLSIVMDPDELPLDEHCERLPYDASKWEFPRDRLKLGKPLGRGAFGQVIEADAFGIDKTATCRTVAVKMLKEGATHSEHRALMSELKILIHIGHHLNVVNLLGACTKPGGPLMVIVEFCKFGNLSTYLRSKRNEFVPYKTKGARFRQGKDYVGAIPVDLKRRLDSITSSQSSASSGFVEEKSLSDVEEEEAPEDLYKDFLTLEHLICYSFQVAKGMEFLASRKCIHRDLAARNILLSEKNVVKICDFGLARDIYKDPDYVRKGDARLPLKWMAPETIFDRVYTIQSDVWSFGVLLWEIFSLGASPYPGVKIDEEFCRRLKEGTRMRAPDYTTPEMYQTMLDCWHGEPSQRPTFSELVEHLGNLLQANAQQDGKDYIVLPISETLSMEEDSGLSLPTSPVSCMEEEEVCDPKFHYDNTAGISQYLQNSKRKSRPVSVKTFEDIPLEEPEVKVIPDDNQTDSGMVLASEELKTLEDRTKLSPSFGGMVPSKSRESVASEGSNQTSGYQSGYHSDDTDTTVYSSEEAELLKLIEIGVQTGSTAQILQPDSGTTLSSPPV

SMILES | inhibition at 10 µM (KDR) [%] | inhibition at 10 µM (FGFR3 (K650E)) [%] | inhibition at 10 µM (Tek) [%]
COc1cccc(NC(=O)Nc2cc(Nc3cccc(Cl)c3)ncn2)c1 [Example 131, 1-[6-(3-Chloro-phenylamino)-pyrimidin-4-yl]-3-(3-methoxy-Phenyl)-urea] | 67 to 100 | 27 to 100 | 12 to 100
CCN(C(=O)Nc1c(Cl)c(OC)cc(OC)c1Cl)c1cc(Nc2ccc(C(=O)N3CCN(C)CC3)cc2)ncn1 [Example 64, 3-(2,6-Dichloro-3,5-dimethoxy-phenyl)-1-ethyl-1-{6-[4-(4-methyl-piperazine-1-carbonyl)-phenylamino]-pyrimidin-4-yl}-urea] | 67 to 100 | 27 to 100 | 12 to 100
COc1cc(OC)c(Cl)c(NC(=O)N(C)c2cc(Nc3ccc(CN(C)C)c(C(F)(F)F)c3)ncn2)c1Cl [Example 167, 3-(2,6-Dichloro-3,5-dimethoxy-phenyl)-1-[6-(4-dimethylaminomethyl-3-trifluoromethyl-phenylamino)-pyrimidin-4-yl]-1-methyl-urea] | 67 to 100 | 27 to 100 | 12 to 100
O=C(Nc1cc(Nc2ccc(N3CCOCC3)cc2)ncn1)Nc1c(F)cccc1F [Example 109, 1-(2,6-Difluoro-phenyl)-3-[6-(4-morpholin-4-yl-phenylamino)-pyrimidin-4-yl]-urea] | 67 to 100 | 27 to 100 | 12 to 100
COc1cc(OC)c(Cl)c(NC(=O)N(C)c2cc(Nc3ccc(OC4CCN(C)CC4)cc3)ncn2)c1Cl [Example 165, 3-(2,6-Dichloro-3,5-dimethoxy-phenyl)-1-methyl-{6-[4-(1-methyl-piperidin-4-yloxy)-phenylamino]-pyrimidin-4-yl}-urea] | 67 to 100 | 27 to 100 | 12 to 100
CCN1CCN(c2ccc(Nc3cc(NC(=O)Nc4c(Cl)c(OC)cc(OC)c4Cl)ncn3)cc2)CC1 [Example 160, 1-(2,6-Dichloro-3,5-dimethoxy-phenyl)-3-{6-[4-(4-ethyl-piperazin-1-yl)-phenylamino]-pyrimidin-4-yl}-urea] | 67 to 100 | 27 to 100 | 12 to 100
COc1cc(NC(=O)Nc2cc(Nc3ccc(OCCN4CCOCC4)cc3)ncn2)c(Cl)c(OC)c1 [Example 44, 1-(2-Chloro-3,5-dimethoxy-phenyl)-3-{6-[4-(2-morpholin-4-yl-ethoxy)-phenylamino]-pyrimidin-4-yl}-urea] | 67 to 100 | 27 to 100 | 12 to 100

Results, then the molecule that gave them:

inhibition at 10 µM (KDR) [%] | inhibition at 10 µM (FGFR3 (K650E)) [%] | inhibition at 10 µM (Tek) [%] | SMILES
67 to 100 | 27 to 100 | 12 to 100 | CN(C(=O)Nc1c(Cl)cccc1Cl)c1cc(Nc2ccc(N3CCOCC3)cc2)ncn1 [Example 117, 3-(2,6-Dichloro-phenyl)-1-methyl-1-[6-(4-morpholin-4-yl-phenylamino)-pyrimidin-4-yl]-urea]
67 to 100 | 27 to 100 | 12 to 100 | COc1ccc(Cl)c(NC(=O)Nc2cc(Nc3cccc(OCCN4CCOCC4)c3)ncn2)c1Cl [Example 37, 1-(2,6-Dichloro-3-methoxy-phenyl)-3-{6-[3-(2-morpholin-4-yl-ethoxy)-phenylamino]-pyrimidin-4-yl}-urea]
67 to 100 | 27 to 100 | 12 to 100 | CCN1CCN(c2ccc(Nc3cc(N(C)C(=O)Nc4c(Cl)c(OC)cc(OC)c4Cl)ncn3)cc2)CC1 [Example 145, 3-(2,6-Dichloro-3,5-dimethoxy-phenyl)-1-{6-[4-(4-ethyl-piperazin-1-yl)-phenylamino]-pyrimidin-4-yl}-1-methyl-urea]
67 to 100 | 27 to 100 | 12 to 100 | COc1cc(OC)c(Cl)c(NC(=O)Nc2cc(Nc3ccc(OCCN4CCCC4)cc3)ncn2)c1Cl [Example 155, 1-(2,6-Dichloro-3,5-dimethoxy-phenyl)-3-{6-[4-(2-pyrrolidin-1-yl-ethoxy)-phenylamino]-pyrimidin-4-yl}-urea]
